Results as given in the supplement of paper PMC13380429.

Legend:
[1] = tested on: A549-ACE2; assay: phospholipidosis EC50; higher = less potent phospholipidosis inducer
[2] = tested on: Calu-3; assay: drug sensitivity score (DSS) for viability; higher = more toxic; extreme values may be limits of the assay; conditions: 72 h
[3] = tested on: U2OS; assay: as above; conditions: 72 h
[4] = tested on: Caco-2; assay: as above; conditions: 72 h
[5] = tested on: HepG2; assay: as above; conditions: 72 h
[6] = tested on: Vero E6; assay: as above; conditions: 72 h
[7] = tested on: Calu-3; assay: relative viability EC50 (midpoint between 100% and the lowest measured viability); higher = less toxic; conditions: 72 h
[8] = tested on: U2OS; assay: as above; conditions: 72 h
[9] = tested on: Caco-2; assay: as above; conditions: 72 h
[10] = tested on: HepG2; assay: as above; conditions: 72 h
[11] = tested on: Vero E6; assay: as above; conditions: 72 h
[12] = tested on: Calu-3; assay: cell viability relative to DMSO; higher = less toxic; conditions: 72 h
[13] = tested on: U2OS; assay: as above; conditions: 72 h
[14] = tested on: Caco-2; assay: as above; conditions: 72 h
[15] = tested on: HepG2; assay: as above; conditions: 72 h
[16] = tested on: Vero E6; assay: as above; conditions: 72 h
[17] = tested on: A549-ACE2 infected with SARS-CoV-2; assay: SARS-CoV-2 infection rate relative to DMSO; higher = more infection; conditions: 24 h
[18] = tested on: A549-ACE2; assay: drug-induced phospholipidosis relative to tamoxifen; higher = more phospholipidosis
[19] = tested on: A549-ACE2 infected with SARS-CoV-2; assay: cell count relative to DMSO; higher = less toxic; conditions: 24 h
[20] = tested on: A549-ACE2 infected with SARS-CoV-2; assay: morphology score (similarity to uninfected cells); higher = more like uninfected cells; conditions: 24 h

Cn1cc(C2=C(c3ccc(Cl)cc3Cl)C(=O)NC2=O)c2ccccc21
Conditions | SARS-CoV-2 infection rate [%] | cell count [%] | cell viability [%] | morphology score | phospholipidosis EC50 [µM]
[1], 24 h | – | – | – | – | 6.83
[1], 48 h | – | – | – | – | 1.87
[1], 72 h | – | – | – | – | 3.22
[12], 1 nM | – | – | 113 | – | –
[12], 10 nM | – | – | 108 | – | –
[12], 100 nM | – | – | 99.5 | – | –
[12], 1000 nM | – | – | 122 | – | –
[12], 10000 nM | – | – | 103 | – | –
[13], 1 nM | – | – | 100 | – | –
[13], 10 nM | – | – | 97.9 | – | –
[13], 100 nM | – | – | 97.8 | – | –
[13], 1000 nM | – | – | 100 | – | –
[13], 10000 nM | – | – | 97.8 | – | –
[14], 1 nM | – | – | 105 | – | –
[14], 10 nM | – | – | 99.9 | – | –
[14], 100 nM | – | – | 92.5 | – | –
[14], 1000 nM | – | – | 105 | – | –
[14], 10000 nM | – | – | 93.1 | – | –
[15], 1 nM | – | – | 98.8 | – | –
[15], 10 nM | – | – | 95 | – | –
[15], 100 nM | – | – | 100 | – | –
[15], 1000 nM | – | – | 95.1 | – | –
[15], 10000 nM | – | – | 87.2 | – | –
[16], 1 nM | – | – | 99.1 | – | –
[16], 10 nM | – | – | 98 | – | –
[16], 100 nM | – | – | 98.4 | – | –
[16], 1000 nM | – | – | 96.2 | – | –
[16], 10000 nM | – | – | 99.8 | – | –
[17], 0.3 µM | 109 | – | – | – | –
[17], 3 µM | 101 | – | – | – | –
[17], 10 µM | 90 | – | – | – | –
[17], 30 µM | 91 | – | – | – | –
[19], 0.3 µM | – | 96 | – | – | –
[19], 3 µM | – | 94 | – | – | –
[19], 10 µM | – | 96 | – | – | –
[19], 30 µM | – | 91 | – | – | –
[20], 0.3 µM | – | – | – | -0.36 | –
[20], 3 µM | – | – | – | -0.27 | –
[20], 10 µM | – | – | – | -0.07 | –
[20], 30 µM | – | – | – | -0.09 | –

Conditions | drug sensitivity score | relative viability EC50 [µM]
[2] | 0 | –
[3] | 0 | –
[4] | 0 | –
[5] | 0.3 | –
[6] | 0 | –
[7] | – | > 10
[8] | – | > 10
[9] | – | > 10
[10] | – | > 10
[11] | – | > 10

drug-induced phospholipidosis [%], [18]
Conditions | 0.3 µM | 0.833333 µM | 3.33333 µM | 6.66667 µM | 10 µM | 30 µM
24 h | 3.42 | 26.9 | 57 | 74.1 | 90.2 | 107
48 h | 4.24 | 11.7 | 45.3 | 55.7 | 59.6 | 55.3
72 h | 4.76 | 5.3 | 35.3 | 56 | 56.2 | 54.6

CN(Cc1ccc(C(C)(C)C)cc1)Cc1cccc2ccccc12 [butenafine]
Conditions | drug sensitivity score | relative viability EC50 [µM]
[2] | 0 | –
[3] | 0 | –
[4] | 0 | –
[5] | 0 | –
[6] | 0 | –
[7] | – | > 10
[8] | – | > 10
[9] | – | > 10
[10] | – | > 10
[11] | – | > 10

Conditions | SARS-CoV-2 infection rate, [17] [%] | cell count, [19] [%] | cell viability, [12] [%] | cell viability, [13] [%] | cell viability, [14] [%] | cell viability, [15] [%] | cell viability, [16] [%] | morphology score, [20]
1 nM | – | – | 100 | 94.6 | 95.3 | 106 | 92.8 | –
10 nM | – | – | 102 | 98 | 101 | 94.2 | 102 | –
100 nM | – | – | 98 | 96.9 | 92.8 | 103 | 95.5 | –
0.3 µM | 100 | 101 | – | – | – | – | – | 0.14
1000 nM | – | – | 94.5 | 96.3 | 92.5 | 102 | 102 | –
3 µM | 105 | 83 | – | – | – | – | – | -0.05
10000 nM | – | – | 98 | 96.1 | 93.6 | 105 | 97.4 | –
10 µM | 77 | 107 | – | – | – | – | – | 0.58
30 µM | 39 | 110 | – | – | – | – | – | 0.79

drug-induced phospholipidosis [%], [18]
Conditions | 0.3 µM | 0.833333 µM | 3.33333 µM | 6.66667 µM | 10 µM | 30 µM
24 h | 1.71 | -2.5 | 2.21 | -2.25 | 2.84 | 7.06
48 h | 1.14 | -3.77 | -1.99 | -1.09 | 3.04 | 15.1
72 h | 2.18 | -4.26 | -1.97 | -2.04 | 0.626 | 14.1
